Laboratory results: publication PMC5742828, “α-Glucosidase and Protein Tyrosine Phosphatase 1B Inhibitory Activity of Plastoquinones from Marine Brown Alga Sargassum serratifolium” (Marine Drugs, 2017)

Columns and labels:
Assay type in all cases: biochemical
[1] = target: T1, PTP1B (human recombinant) (Homo sapiens, UniProt P18031); assay: PTP1B inhibitory assay (pNPP substrate); conditions: log-dose inhibition curve; mean ± SEM of triplicate experiments
T1 construct: purchased Biomol International LP (Plymouth Meeting, PA, USA)
T1 sequence (P18031 1-435): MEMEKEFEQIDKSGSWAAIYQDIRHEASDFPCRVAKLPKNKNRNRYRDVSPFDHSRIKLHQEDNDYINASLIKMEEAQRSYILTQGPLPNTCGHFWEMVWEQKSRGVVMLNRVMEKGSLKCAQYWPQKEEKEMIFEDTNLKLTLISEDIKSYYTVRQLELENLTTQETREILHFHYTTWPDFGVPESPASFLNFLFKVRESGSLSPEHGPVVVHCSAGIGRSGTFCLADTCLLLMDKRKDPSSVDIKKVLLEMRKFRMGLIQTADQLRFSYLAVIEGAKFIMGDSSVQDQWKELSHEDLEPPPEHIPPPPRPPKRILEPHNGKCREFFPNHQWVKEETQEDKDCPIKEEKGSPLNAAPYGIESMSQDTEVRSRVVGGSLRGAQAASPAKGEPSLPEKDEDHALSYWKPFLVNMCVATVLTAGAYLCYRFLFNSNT
Experimental: Dithiothreitol (DTT) was purchased from Bio-Rad Laboratories (Hercules, CA, USA) and PTP1B (human recombinant) was purchased from Biomol International LP (Plymouth Meeting, PA, USA). ONOO^− was purchased from Molecular Probes Cayman (Ann Arbor, MI, USA). All other chemicals and solvents used were purchased from E. Merck, Fluka, and Sigma-Aldrich, unless otherwise stated. The PTP1B inhibitory activities of the plastoquinones were evaluated using pNPP [68]. Recombinant PTP1B enzyme (0.5 units diluted with a PTP1B reaction buffer) was added with or without sample. The plate was pre-incubated at 37 °C for 10 min and then substrate (2 mM pNPP) was added. Following incubation at 37 °C for 15 min, the enzymatic reaction was terminated by the addition of 10 M NaOH.

[2] = target: T1, PTP1B (human recombinant); assay: Kinetic study against PTP1B (Dixon plots); conditions: Dixon plot; pNPP 0.5, 1.0, 2.0 mM
Experimental: (§1) In an attempt to explain the mode of enzymatic inhibition of sargahydroquinoic acid, sargachromenol, and sargaquinoic acid, kinetic analysis was performed at different concentrations of the substrate (pNPP for PTP1B and pNPG for α-glucosidase) and inhibitor.
Figure 3 Dixon plots for PTP1B inhibition of compounds. (a) sargahydroquinoic acid; (b) sargachromenol and (c) sargaquinoic acid were tested in the presence of different concentrations of substrate: 2.0 mM (●); 1.0 mM (ο); 0.5 mM (▼).
(§2) To determine the modes of enzyme inhibition, Dixon plots were used. The kinetic analyses were performed at different concentrations of substrate (0.625, 1.25, and 2.5 mM pNPG for α-glucosidase; 0.5, 1.0, and 2.0 mM pNPP for PTP1B) and various concentrations of plastoquinones (0, 0.4, 2.0, and 10.0 µM for PTP1B and 0, 25, 50 and 100 µM for α-glucosidase, respectively). Enzymatic inhibition of the test plastoquinones was evaluated by monitoring the effects of different concentrations of the substrate in the Dixon plots (single reciprocal plots). The enzymatic procedure consisted of the same aforementioned assay method. The inhibition constants (Ki) were determined via interpretation of the Dixon plots, where the value of the x-axis implies -Ki.

Yeast α-glucosidase = Yeast α-glucosidase (Saccharomyces cerevisiae, UniProt P53341); assay: Kinetic study against α-glucosidase (Dixon plots); conditions: Dixon plot; pNPG 0.625, 1.25, 2.5 mM
Yeast α-glucosidase, sequence (P53341 whole entry): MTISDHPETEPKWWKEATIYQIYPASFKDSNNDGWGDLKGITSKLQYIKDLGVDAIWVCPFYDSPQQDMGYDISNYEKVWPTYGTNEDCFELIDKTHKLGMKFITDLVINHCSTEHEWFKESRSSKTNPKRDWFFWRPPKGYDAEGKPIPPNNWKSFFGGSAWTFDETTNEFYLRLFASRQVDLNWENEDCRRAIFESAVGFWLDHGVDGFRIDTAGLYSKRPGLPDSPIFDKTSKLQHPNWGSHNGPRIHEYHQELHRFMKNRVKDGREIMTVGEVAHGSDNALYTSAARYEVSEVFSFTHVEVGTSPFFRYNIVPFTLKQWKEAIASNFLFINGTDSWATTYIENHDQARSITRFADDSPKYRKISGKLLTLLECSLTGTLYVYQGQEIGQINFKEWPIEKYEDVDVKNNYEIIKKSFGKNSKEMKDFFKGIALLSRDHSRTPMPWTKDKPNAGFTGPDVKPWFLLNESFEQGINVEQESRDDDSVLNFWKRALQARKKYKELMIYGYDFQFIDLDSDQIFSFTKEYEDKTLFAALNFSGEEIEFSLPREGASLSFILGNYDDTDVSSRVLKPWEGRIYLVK
Experimental: as §1
Figure 4 Dixon plots for α-glucosidase inhibition of compounds. (a) sargachromenol and (b) sargaquinoic acid were tested in the presence of different concentrations of substrate: 2.5 mM (●); 1.25 mM (ο); 0.625 mM (▼).
as §2

[3] = tested on: bovine serum albumin (BSA); assay: Inhibition of ONOO−-mediated albumin nitration (western blot, 3-nitrotyrosine antibody); conditions: ONOO− 200 µM
Experimental: Figure 5 Dose-depended inhibition of ONOO^−-mediated albumin nitration by plastoquinones. Mixtures of test samples, bovine serum albumin (BSA), and ONOO^− were incubated with shaking at 37 °C for 30 min. The reactant was resolved in 10% polyacrylamide gel via electrophoresis. (a) sargahydroquinoic acid; (b) sargachromenol; and (c) sargaquinoic acid were used at the indicated concentrations; (d) Quantification of band intensity was calculated using CS Analyzer 3.00 (ATTO Corp., Tokyo, Japan). ^# p < 0.05 indicates a significant difference from the untreated normal group, * p < 0.05 indicate significant differences from the ONOO^− treated control.
The inhibition of ONOO^–-mediated nitrated albumin was evaluated using the method of Aulak et al.. Samples were added to bovine serum albumin (BSA) and mixed with ONOO^− (200 µM). After 10 min incubation (room temperature), the sample solution was added to Bio-Rad 2X Laemmli Sample buffer with mercaptoethanol and then boiled for 7 min. The reactant was resolved in 10% polyacrylamide gel via electrophoresis and transferred onto PVDF membranes. Pre-stained blue protein markers were used for molecular weight determination. Monoclonal anti-nitrotyrosine antibody (85 kDa) was used as a primary antibody and horseradish peroxidase-conjugated sheep anti-mouse secondary antibody was used as a secondary antibody. Antibody labeling was visualized using the Supersignal West Pico Chemiluminescent substrate (Pierce Chemical Co., Rockford, IL, USA). Densitometric analysis of the western blot results was determined using CS analyzer v3.00 (ATTO Corp.).

| SMILES | IC50 [1] [µM] | Ki [2] [µM] | PTP1B Inhibition Type [2] | α-Glucosidase Inhibition Type (Yeast α-glucosidase) | Inhibition of ONOO−-mediated albumin nitration ([3]; pretreatment at 5–25 μM) | Inhibition of ONOO−-mediated albumin nitration ([3]; pretreatment at 2.5–10 μM) |
| --- | --- | --- | --- | --- | --- | --- |
| CC(C)=CCC/C(=C/CC/C(C)=C/CC/C(C)=C/CC1=CC(=O)C=C(C)C1=O)C(=O)O [Sargaquinoic acid, sargaquinoic acid] | 14.15 ± 0.02 | 5.2 | Mixed | Mixed | markedly dose-dependent inhibition |  |
| CC(C)=CCC/C(=C/CC/C(C)=C/CCC1(C)C=Cc2cc(O)cc(C)c2O1)C(=O)O (centres unmarked) [Sargachromenol, sargachromenol] | 11.8 ± 3.35 | 5.85 | Non-competitive | Non-competitive |  | strong inhibition |
| CC(C)=CCC/C(=C/CC/C(C)=C/CC/C(C)=C/Cc1cc(O)cc(C)c1O)C(=O)O [Sargahydroquinoic acid, sargahydroquinoic acid] | 5.14 ± 0.07 | 2.21 | Mixed |  | markedly dose-dependent inhibition |  |
